Structures can show the parent of a compound that is named as a salt.

Test [1] concerns Chinese hamster ovary cells. Kind of test: mitotic arrest assay (mitotic inhibitory activity). The format is cell-based. To be noted: 20.0 mcg/ml, five hours contact. The protocol: One such test, for example, was a determination of mitotic inhibitory activity. The compounds of this invention have the ability to arrest cultured cells at the mitotic phase (metaphase) of the cell cycle without apparent effect on other stages of the cell cycle. Such mitotic inhibitory activity is an indication that the compounds may have a beneficial effect on the biological activities of antineoplastic drugs. […] The compounds of the invention were administered at 20 mcg./ml. and the number of cells arrested at the mitotic phase out of 1000 cultured cells were counted and compared to the controls which underwent mitotic arrest without a drug present. Two evaluations were carried out for each test compound. The results reported are the percent of cells held at mitosis after five hours contact with the compound of this invention.

Test [2] deals with aly fast tumor strain of bronchiogenic carcinoma of the lung. Kind of test: combination chemotherapy with cytoxan, implanted bronchiogenic carcinoma (Table 4). The format is in vivo, hamsters. The conditions noted are these: cytoxan 10 mg./kg. i.p. once daily, A 10 mg./kg. s.c. twice daily. How it is done:
(§1) In a typical experiment, laboratory mice were infected by a subcutaneous implantation of a tumor tissue in the axillary region of the body. The implantations were accomplished by means of a trocar. Initial tumor size in each animal generally was about 2 square millimeters. Tumor size was then measured periodically as length and width in mm. Typical tumor systems implanted included adenocarcinoma 755, an Aly Fast strain of bronchiogenic carcinoma, and mecca lymphosarcoma. Oncolytic agents utilized in the tests to determine the potentiating effects of the compounds of the invention.include cytoxan, 5-fluorouracil, vindesine, methotrexate and 6-mercaptopurine. Twenty or thirty infected animals generally were selected as controls and received placebo. Ten infected animals normally were selected to receive a known oncolytic agent. Another ten infected animals were administered the known oncolytic agent in addition to a compound of this invention.
In a similar test, hamsters were infected with an aly fast tumor strain of bronchiogenic carcinoma of the lung. Cytoxan was administered to one group of infected animals at an intraperitoneal dose of 10 mg./kg. once daily. A compound of this invention, N-(2-phenyl-2-hydroxyethyl)-l,l-dimethyl-3-(4-hydroxyphenyl)propylaminium bromide (designated in Table 4 as A), caused a significant synergistic effect when co-administered with cytoxan. Cytoxan was administered i.p. once daily at 10 mg./kg. to the animals receiving the combination chemotherapy, and compound A was administered subcutaneously at the rate of 10 mg./kg. twice daily. It should be noted that the average tumor size for the animals receiving the combination of cytoxan and N-(2-phenyl-2-hydroxyethyl)-l,l-dimethyl-3-(4-hydroxyphenyl)-propylaminium bromide was only 20 square millimeters after the nineteenth day of treatment, while the average tumor size for the group receiving cytoxan was about the same as that for the animals receiving placebo, namely about 1340 square millimeters.

In another test the test system is 755 adenocarcinoma. Put plainly: combination chemotherapy with cytoxan at varying doses, implanted 755 adenocarcinoma (Table 8). It is filed as in vivo. How it is done:
as §1
A similar study was carried out with cytoxan at varying doses and the combination of cytoxan and N-(2-phenyl-2-hydroxyethyl)-l,l-dimethyl-3-(4-aminocarbonylphenyl)propylaminium chloride. A group of ten animals infected with the 755 adenocarcinoma were given cytoxan intraperitoneally at the rate of 25 mg./kg. once per day on days 5, 9 and 13 of the test. Another group of infected animals received cytoxan at 12.5 mg./kg. once per day on days 5, 9 and 13. A third group of infected animals received the combination of cytoxan, given i.p. at 12.5 mg./kg. on days 5, 9 and 13, and the compound of this invention (compound B) given subcutaneously twice daily on days 5 through 14 at the dose of 7.5 mg./kg. As indicated by the data, all of the control animals and those receiving the oncolytic agent alone were dead after 73 days. In contrast, six of the ten animals which received combination chemotherapy were still living after 73 days of the test, and all of those still living were tumor free.

In test [3] the test system is adenocarcinoma (CA 755 tumor). Put plainly: combination chemotherapy with vindesine, implanted adenocarcinoma (Table 5). It is filed as in vivo, mice. To be noted: vindesine 0.6 mg./kg. i.p. days 1, 5, 9, 13, B 7.5 mg./kg. i.p. twice daily first 15 days. How it is done:
as §1
The animals receiving combination chemotherapy were administered vindesine intraperitoneally according to the above-indicated dosage regimen, and N-(2-phenyl-2-hydroxyethyl)-1,1-dimethyl-3-(4-aminocarbonylphenyl)propylaminium chloride was administered intraperitoneally at the rate of 7.5 mg./kg. twice daily for the first 15 days of the test. Under column I of each of the indicated days of measurement is given the average tumor size in square millimeters for each test group. Column II under each of the indicated days of measurement provides the number of tumor free animals out of those still living on that particular day in each test group. […] In contrast, all of the control animals and those receiving vindesine alone had died by day 40, and none were tumor free after the thirteenth day of the test.

The mark [4] stands for this setting: Day 5, cytoxan 12.5 mg./kg. i.p. days 5, 9, 13, B 7.5 mg./kg. s.c. twice daily days 5 through 14.
Setting [5] is: Day 5, cytoxan 25 mg./kg. i.p. once per day on days 5, 9, 13.
[6] abbreviates: Day 12, cytoxan 12.5 mg./kg. i.p. days 5, 9, 13, B 7.5 mg./kg. s.c. twice daily days 5 through 14.
Setting [7] is: Day 12, cytoxan 25 mg./kg. i.p. once per day on days 5, 9, 13.
The mark [8] stands for this setting: Day 17, cytoxan 12.5 mg./kg. i.p. days 5, 9, 13, B 7.5 mg./kg. s.c. twice daily days 5 through 14.
[9] abbreviates: Day 17, cytoxan 25 mg./kg. i.p. once per day on days 5, 9, 13.
Where [10] appears, read: Day 23, cytoxan 12.5 mg./kg. i.p. days 5, 9, 13, B 7.5 mg./kg. s.c. twice daily days 5 through 14.
Setting [11] is: Day 23, cytoxan 25 mg./kg. i.p. once per day on days 5, 9, 13.
Setting [12] is: Day 29, cytoxan 12.5 mg./kg. i.p. days 5, 9, 13, B 7.5 mg./kg. s.c. twice daily days 5 through 14.
The mark [13] stands for this setting: Day 29, cytoxan 25 mg./kg. i.p. once per day on days 5, 9, 13.

Consider `CNC(=O)c1ccc(CCC(C)(C)NCC(O)c2ccccc2)cc1` (racemic) [N-(2-phenyl-2-hydroxyethyl)-l,l-dimethyl-3-(4-methylaminocarbonylphenyl)propylaminium chloride], for which the “Mitotic Index (percent of cells held at mitosis)” value in test [1] (first of two evaluations) is listed as 36%; in test [1] (second of two evaluations) it was 38%.
For the molecule `CC(C)(CCc1ccc(O)cc1)NCC(O)c1ccccc1` (racemic) [N-(2-Phenyl-2-hydroxyethyl)-l,l-dimethyl-3-(4-hydroxyphenyl)propylamine], the entries for the “Mitotic Index (percent of cells held at mitosis)” value in test [1] (first of two evaluations) and in test [1] (second of two evaluations) were 36% and 33%, respectively.
For `O=P1(N(CCCl)CCCl)NCCCO1` (centres unmarked) [Cytoxan, cytoxan], the “number of surviving animals out of test group” value in test [2] (Day 0) is listed as 10/10; in test [2] (Day 8) it was 10/10; in test [2] (Day 13) it was 9/10; in test [2] (Day 19) it was 6/10. In addition, the average tumor size in test [2] (Day 8) was 560 square millimeters; in test [2] (Day 13), 950 square millimeters; in test [2] (Day 19), 1340 square millimeters; in test [2] (Day 19, listed as cytoxan), “about 1340 square millimeters”; in the test with 755 adenocarcinoma (setting [4]), 130; in the test with 755 adenocarcinoma (setting [5]), 80. Also, the average tumor size in the test with 755 adenocarcinoma (setting [6]) is 190; in the test on 755 adenocarcinoma (setting [7]), 60; with 755 adenocarcinoma (setting [8]), 300; in the test on 755 adenocarcinoma (setting [9]), 60; in the test on 755 adenocarcinoma (setting [10]), 600; in the test with 755 adenocarcinoma (setting [11]), 200. Besides, the values for the average tumor size in the test with 755 adenocarcinoma (setting [12]) and in the test on 755 adenocarcinoma (setting [13]) were 800 and 570, respectively. Moreover, the “number of tumor free animals out of those still living” value is reported as 0/10 with 755 adenocarcinoma (Day 0, cytoxan 12.5 mg./kg. i.p. days 5, 9, 13, B 7.5 mg./kg. s.c. twice daily days 5 through 14); 0/10 with 755 adenocarcinoma (Day 0, cytoxan 25 mg./kg. i.p. once per day on days 5, 9, 13); 0/10 in the test with 755 adenocarcinoma (setting [4]); 0/10 with 755 adenocarcinoma (setting [5]); 0/10 in the test with 755 adenocarcinoma (setting [6]); 1/10 with 755 adenocarcinoma (setting [7]). The “number of tumor free animals out of those still living” value is 0/10 in the test on 755 adenocarcinoma (setting [8]); 4/10 in the test with 755 adenocarcinoma (setting [9]); 1/9 with 755 adenocarcinoma (setting [10]); 2/9 in the test with 755 adenocarcinoma (setting [11]); 0/4 in the test on 755 adenocarcinoma (setting [12]); 0/4 in the test with 755 adenocarcinoma (setting [13]). Also, the “number of tumor free animals out of those still living” value in the test with 755 adenocarcinoma (Day 73, cytoxan 12.5 mg./kg. i.p. days 5, 9, 13, B 7.5 mg./kg. s.c. twice daily days 5 through 14) is given as 0/0; with 755 adenocarcinoma (Day 73, cytoxan 25 mg./kg. i.p. once per day on days 5, 9, 13), 0/0.
For the molecule `CC(C)(CCc1ccc(C(N)=O)cc1)NCC(O)c1ccccc1` (centres unmarked) [N-(2-Phenyl-2-hydroxyethyl)-1,1-dimethyl-3-(4-aminocarbonylphenyl)propylamine], the “Mitotic Index (percent of cells held at mitosis)” value in test [1] (first of two evaluations) was 57%; in test [1] (second of two evaluations), 45%.
With `CCC1(O)CC2CN(CCc3c([nH]c4ccccc34)C(C(=O)OC)(c3cc4c(cc3OC)N(C)C3C(O)(C(N)=O)C(O)C5(CC)C=CCN6CCC43C65)C2)C1` (centres unmarked) [VDS, vindesine], the “number of tumor free animals out of those still living” value in test [3] (Day 0) is recorded as 0/10; in test [3] (Day 8), 3/9; in test [3] (Day 13), 0/8; in test [3] (Day 19), 0/8; in test [3] (Day 26), 0/6; in test [3] (Day 40), 0/0. Besides, the average tumor size in test [3] (Day 8) was 35 square millimeters; in test [3] (Day 13) it was 170 square millimeters; in test [3] (Day 19), 300 square millimeters; in test [3] (Day 26), 620 square millimeters.
With `CN(C)C(=O)c1ccc(CCC(C)(C)NCC(O)c2ccccc2)cc1` (racemic) [N-(2-phenyl-2-hydroxyethyl)-1,1-dimethyl-3-(4-dimethylaminocarbonylphenyl)propylaminium oxalate], the entries for the “Mitotic Index (percent of cells held at mitosis)” value in test [1] (first of two evaluations) and in test [1] (second of two evaluations) were 40% and 46%, respectively.

For the origin of these results see patent EP0007206A1, “Phenethanolamines, their formulations, preparation and use” (ELI LILLY AND COMPANY, priority 1978, dated 1980).
